The source of these data is ChEMBL document CHEMBL3351934, “Monocyclic 4-amino-6-(phenylamino)-1,3,5-triazines as inhibitors of human DNA topoisomerase IIα” (Bioorg Med Chem Lett, 2014).

The structures appear in SMILES notation. Activity calls are given as the source filed them. The rule behind the calls is not given here.

One data set has as its system HUVEC. As to the kind of experiment: Cytotoxic activity against HUVEC assessed as reduction in cell viability after 24 hrs by MTT assay. In kind it is cell-based, Homo sapiens. The conditions noted are these: Homo sapiens, HUVEC. (Tetrazolium dyes change colour on reduction, which living cells bring about.)
As to `COc1ccc(Nc2nc(N)nc(CSC(=S)N3CCOCC3)n2)cc1`, the EC50 was determined as 122 µM.

The data set is the same for the next values; noted with them: human, huvec.
As to `COc1ccc(Nc2nc(N)nc(CSC(=S)N3CCOCC3)n2)cc1`, the “inhibition (INH)” value is “Dose-dependent effect”.

For the next data set, the system named is MCF7. As to the kind of experiment: Cytotoxic activity against human MCF7 cells assessed as reduction in cell viability at 6.25 to 25 after 24 hrs by MTT assay. In kind it is functional, cell-based.
Conditions: not given
Take `COc1ccc(Nc2nc(N)nc(CSC(=S)N3CCOCC3)n2)cc1`: the inhibition entry is “inactive”.

The subject of the next data set is MCF7. As to the kind of experiment: Cytotoxic activity against human MCF7 cells assessed as reduction in cell viability after 24 hrs by MTT assay. The settings on record: MCF7, 24 h.
Consider `COc1ccc(Nc2nc(N)nc(CSC(=S)N3CCOCC3)n2)cc1`, for which the EC50 was found to be 129 µM.

Tested on in a further data set: not listed separately
Nature of the data set: Cytotoxic activity against HUVEC assessed as reduction in cell viability at 200 uM after 24 hrs by MTT assay. The settings on record: human, HUVEC cells; read-out: INH. The class given is cell-based.
Consider `COc1ccc(Nc2nc(N)nc(CSC(=S)N3CCOCC3)n2)cc1`, for which the cytotoxicity at 24 h, 200 µM was 90%.

For another data set, the system named is HepG2. Nature of the data set: Cytotoxic activity against human HepG2 cells assessed as reduction in cell viability at 200 uM after 24 hrs by MTT assay. In kind it is functional. The conditions noted are these: HepG2, 24 h.
In the case of `COc1ccc(Nc2nc(N)nc(CSC(=S)N3CCOCC3)n2)cc1`, the inhibition at 200 µM is 90%.

The next data set concerns HepG2. Nature of the data set: Cytotoxic activity against human HepG2 cells assessed as reduction in cell viability after 24 hrs by MTT assay. The settings on record: HepG2, 24 h.
Turning to `COc1ccc(Nc2nc(N)nc(CSC(=S)N3CCOCC3)n2)cc1`, the concentration giving a half-maximal response (EC50) came out at 20.5 µM.

The next data set relates to HepG2. Nature of the data set: Cytotoxic activity against human HepG2 cells assessed as reduction in cell viability at 50 to 100 uM after 24 hrs by MTT assay. In kind it is functional, cell-based.
Conditions: not given
On to `COc1ccc(Nc2nc(N)nc(CSC(=S)N3CCOCC3)n2)cc1`, for which the inhibition result was “Active”.

The target in a further data set is DNA topoisomerase 2-alpha (Homo sapiens, UniProt P11388). As to the kind of experiment: Inhibition of human DNA topoisomerase 2alpha using plasmid pNO1 substrate incubated at 37 degC for 30 mins by fluorimetry.
DNA topoisomerase 2-alpha, sequence (P11388 whole entry): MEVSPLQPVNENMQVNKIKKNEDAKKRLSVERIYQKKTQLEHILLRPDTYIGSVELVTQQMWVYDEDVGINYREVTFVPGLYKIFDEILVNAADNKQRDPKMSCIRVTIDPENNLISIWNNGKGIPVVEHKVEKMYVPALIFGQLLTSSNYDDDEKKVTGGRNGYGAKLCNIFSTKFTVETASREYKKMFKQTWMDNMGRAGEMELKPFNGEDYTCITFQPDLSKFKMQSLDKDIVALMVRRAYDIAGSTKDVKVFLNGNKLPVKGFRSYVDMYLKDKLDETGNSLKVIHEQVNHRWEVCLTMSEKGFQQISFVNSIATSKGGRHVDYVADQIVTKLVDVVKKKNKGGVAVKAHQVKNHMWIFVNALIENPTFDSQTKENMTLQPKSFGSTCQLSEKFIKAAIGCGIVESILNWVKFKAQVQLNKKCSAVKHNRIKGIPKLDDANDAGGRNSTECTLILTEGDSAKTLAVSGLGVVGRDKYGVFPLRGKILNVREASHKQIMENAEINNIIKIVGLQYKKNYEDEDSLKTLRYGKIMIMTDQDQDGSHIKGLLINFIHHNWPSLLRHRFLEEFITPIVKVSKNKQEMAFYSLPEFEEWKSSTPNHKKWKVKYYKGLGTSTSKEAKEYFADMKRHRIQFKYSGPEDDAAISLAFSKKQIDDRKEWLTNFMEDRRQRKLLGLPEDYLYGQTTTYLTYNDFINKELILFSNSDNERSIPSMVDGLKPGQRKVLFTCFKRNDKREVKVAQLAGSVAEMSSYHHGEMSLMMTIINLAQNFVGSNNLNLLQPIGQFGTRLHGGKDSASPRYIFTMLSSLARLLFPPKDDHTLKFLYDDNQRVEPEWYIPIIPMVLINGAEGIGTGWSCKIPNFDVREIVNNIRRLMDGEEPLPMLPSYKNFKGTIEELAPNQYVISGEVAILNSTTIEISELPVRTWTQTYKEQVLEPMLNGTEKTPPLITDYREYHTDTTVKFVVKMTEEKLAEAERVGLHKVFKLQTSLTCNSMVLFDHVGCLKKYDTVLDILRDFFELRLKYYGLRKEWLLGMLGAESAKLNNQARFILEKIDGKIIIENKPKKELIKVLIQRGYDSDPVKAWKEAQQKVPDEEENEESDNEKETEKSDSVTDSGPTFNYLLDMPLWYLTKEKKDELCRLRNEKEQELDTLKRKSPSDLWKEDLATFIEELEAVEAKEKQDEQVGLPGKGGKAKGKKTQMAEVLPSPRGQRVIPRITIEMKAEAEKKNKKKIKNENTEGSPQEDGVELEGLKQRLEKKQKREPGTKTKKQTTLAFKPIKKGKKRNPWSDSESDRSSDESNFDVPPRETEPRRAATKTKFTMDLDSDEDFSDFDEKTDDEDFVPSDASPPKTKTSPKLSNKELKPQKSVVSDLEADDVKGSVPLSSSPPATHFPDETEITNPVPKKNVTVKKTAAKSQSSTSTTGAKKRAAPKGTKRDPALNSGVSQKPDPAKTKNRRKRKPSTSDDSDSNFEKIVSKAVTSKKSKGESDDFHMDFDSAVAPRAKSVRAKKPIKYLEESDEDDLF
Conditions: not given
As for `Nc1nc(CSc2nnnn2C2CCCC2)nc(Nc2ccc(F)cc2)n1`, the IC50 is greater than 1000 µM.

`COc1cccc(C(=O)NCc2nnc(S)n2-c2ccc(Cl)c(Cl)c2)c1` had an IC50 greater than 1000 µM.

The compound `Nc1nc(CSc2nnn[nH]2)nc(Nc2ccc(F)cc2)n1` returned an IC50 of 337 µM.

Turning to `Cc1cc(O)nc(N/N=C\c2ccncc2)n1`, the half-maximal inhibitory concentration (IC50) is greater than 1000 µM.

Consider `CN1CCN(C(=S)SCc2nc(N)nc(Nc3ccc(F)cc3)n2)CC1`, for which the 50% inhibitory concentration (IC50) is greater than 1000 µM.

With `Nc1nc(CSC(=S)N2CCOCC2)nc(Nc2ccc(F)cc2)n1`, the IC50 was 139 µM.

In turn, `O=C(NCc1n[nH]c(=S)n1-c1ccccc1)c1ccccc1C(F)(F)F` came in with a half-maximal inhibitory concentration (IC50) greater than 1000 µM.

Compound `Nc1nc(N)nc(CSc2nnc(-c3cccnc3)o2)n1` returned a 50% inhibitory concentration (IC50) greater than 1000 µM.

For `Cc1cc(CNc2nc3c(cc2C(N)=O)CCC3)ccn1`, the IC50 is greater than 1000 µM.

In turn, `COc1ccc(Nc2nc(N)nc(CSC(=S)N3CCOCC3)n2)cc1` yielded an IC50 of 229 µM.

Turning to `Nc1nc(CSc2nnc(C3CC3)o2)nc(Nc2ccc(F)cc2)n1`, the IC50 is greater than 1000 µM.

Take `COc1ccc(CNc2ncccc2C(N)=O)cc1OC`: the half-inhibitory concentration (IC50) is greater than 1000 µM.

With `COc1ccc(Nc2nc(N)nc(CSC(=S)N3CCCCC3)n2)cc1`, the 50% inhibitory concentration (IC50) is greater than 1000 µM.

`Nc1nc(SCCc2ccccc2)c2nc[nH]c2n1` returned an IC50 of 85 µM. In other words, the double-digit micromolar range.

`CN(C(=S)SCc1nc(N)nc(Nc2ccc(F)cc2)n1)C1CCCCC1` registered an IC50 greater than 1000 µM.

In turn, `Cc1cc(CNc2ncccc2C(N)=O)ccn1` showed an IC50 greater than 1000 µM.

`Nc1nc(CSC2CCCC2)nc(Nc2ccc(F)cc2)n1`: the IC50 was greater than 1000 µM.

As to `CCCn1ccnc1SCc1nc(N)nc(Nc2ccc(F)cc2)n1`, the concentration for half-maximal inhibition (IC50) was greater than 1000 µM.

Turning to `Cn1nnnc1SCc1nc(N)nc(Nc2ccc(F)cc2)n1`, the IC50 is greater than 1000 µM.

In turn, `C[C@H](Sc1nc(N)nc(N)n1)C(=O)N1CCOCC1` registered a 50% inhibitory concentration (IC50) greater than 1000 µM.

Compound `COc1cccc(C(=O)NCc2n[nH]c(=S)n2-c2ccccc2Cl)c1` had an IC50 greater than 1000 µM.

For `O=C(NCc1n[nH]c(=S)n1-c1ccc(F)cc1)c1ccccc1F`, the half-maximal inhibitory concentration (IC50) was greater than 1000 µM.

For `Cc1cc(CNc2nc(C)ccc2C(N)=O)ccn1`, the concentration for half-maximal inhibition (IC50) was greater than 1000 µM.

In turn, `Cc1cc(O)nc(NCCCn2ccnc2)n1` displayed an IC50 greater than 1000 µM.

`Cc1cc(O)nc(N/N=C\c2cccnc2)n1` showed an IC50 greater than 1000 µM.

`C[C@H](Sc1nc(N)cc(O)n1)C(=O)N1CCOCC1` returned an IC50 greater than 1000 µM.

In a further data set the test system is MCF7. Nature of the data set: Cytotoxic activity against human MCF7 cells assessed as reduction in cell viability at 200 uM after 24 hrs by MTT assay. The class given is functional, cell-based.
Conditions: not given
With `COc1ccc(Nc2nc(N)nc(CSC(=S)N3CCOCC3)n2)cc1`, the inhibition entry is “Active”.

Another data set concerns HepG2. As to the kind of experiment: Cytotoxic activity against human HepG2 cells assessed as reduction in cell viability at 6.25 to 25 after 24 hrs by MTT assay. The class given is functional, cell-based.
Conditions: not given
Take `COc1ccc(Nc2nc(N)nc(CSC(=S)N3CCOCC3)n2)cc1`: the inhibition entry is “inactive”.

What is called EC50 is the concentration at which the effect is half-maximal. One may read the inhibition as the percentage by which the read-out fell short of the control. A word on the IC50: it is the concentration that inhibits the measured activity by half. A high value points to lower potency.
